How the values were obtained:
[1] = molecular target: BTK kinase (Homo sapiens (Human), UniProt Q06187); assay: BTK kinase experiment (ADP-Glo); format: biochemical; conditions: 2 μM ATP, PolyE4Y1 substrate, 30 minutes pre-incubation
Description: BTK kinase, PolyE4Y1 substrate and Kinase assay buffer III were purchased from Signalchem; ADP-Glo Kinase Assay was purchased from Promega; Nivo multi-label analyzer (PerkinElmer).
1× buffer preparation (which was prepared and used immediately): Kinase assay buffer III was diluted with ddH2O to 1× assay buffer for later use.
The compound to be tested was diluted with 100% DMSO to 10 μM as the first concentration, and followed by a 5-fold dilution to the 8th concentration using a multi-channel pipette, i.e., it was diluted from 10 μM to 0.128 nM.
Each gradient of the compound to be tested was diluted into a working solution with 5% DMSO using 1× buffer, 1 μL/well was added to the corresponding well, and a double-replicate well experiment was set up. 2 μL of BTK enzyme (4 ng) was add to each well and incubating at 25° C. for 30 minutes. After the incubation was completed, 2 μL of a mixture of substrate and ATP (2 μM ATP, 0.2 μg/μL PolyE4Y1) was added to each well and incubating at 25° C. for 120 minutes. At this point, the final concentration gradient of the compound was diluted from 100 nM to 0.00128 nM. After the reaction was completed, 5 μL of ADP-Glo reagent was added to each well, and the reaction continued at 25° C. for 40 minutes. After the reaction was completed, 10 μL of kinase detection reagent was added to each well. After reacting at 25° C. for 30 minutes, PerkinElmer Nivo multi-label analyzer was used to read the chemiluminescence, and the integration time was 0.5 seconds.
Raw data was converted into inhibition rate using the equation: (Sample−Min)/(Max−Min)*100%. The IC50 value could then be derived by performing a curve fit using four-parameter (which was obtained using the “log(inhibitor) vs. response-Variable slope” mode in GraphPad Prism).

[2] = Pharmacokinetic evaluation of compounds in dogs; format: in vivo; conditions: dog, plasma, beagle dogs
Description: Experimental purpose: To test the in vivo pharmacokinetic data of compounds in beagle dogs.
(§1) The compound was mixed with the solvent 5% DMSO/5% Solutol/90% H2O, vortexed and sonicated to prepare a 0.5 mg/mL clear solution. The beagle dogs were administered the candidate compound solution intravenously. Whole blood was collected for a certain period of time, and plasma was prepared. The drug concentration was analyzed by LC-MS/MS method, and pharmacokinetic parameters were calculated.
as §1, with “administered” for “administered the”, “solutions orally.” for “solution intravenously.”, “LC- MS/MS” for “LC-MS/MS”

[3] = Pharmacokinetic evaluation of compounds in mice; format: in vivo, CD-1 mice; conditions: mouse, plasma, CD-1 male mice
Description: Experimental purpose: To test the in vivo pharmacokinetic data of compounds in CD-1 mice.
as §1, with “solution. CD-1 male mice aged 7 to 10 weeks” for “solution. The beagle dogs”, “were selected, and” for “were”, “were calculated by Phoenix WinNonlin software (Pharsight Company, USA).” for “were calculated.”
as §1, with “solution. CD-1 male mice aged 7 to 10 weeks” for “solution. The beagle dogs”, “were selected, and” for “were”, “solution orally.” for “solution intravenously.”, “were calculated by Phoenix WinNonlin software (Pharsight Company, USA).” for “were calculated.”

[4] = Hepatocyte metabolic stability experiment (HMS), H; format: in vitro ADME; conditions: human, H hepatocytes, read-out: HMS CLint(liver)
Description: (§2) Experimental operations: 198 μL of hepatocyte suspension (0.51×10^6 cells/mL) was added to the preheated incubation plate, and 198 μL of culture medium without hepatocytes was added to T0-MC and T120-MC incubation plates for the culture medium control group, and all incubation plates were pre-incubated for 10 minutes in a 37° C. incubator. Then 2 μL of the working solution of the test and control compounds were added and mixed well, and the incubation plate was immediately put into the plate shaker in the incubator, the rotation speed was adjusted to about 650 rpm, and the timer and the reaction were started. 2 duplicate samples for each compound were prepared at each time point. Incubation conditions: 37° C., saturated humidity, and containing 5% CO2. In the test system, the final concentration of the test compound was 1 μM, the final concentration of the control compound was 3 μM, the final concentration of hepatocytes was 0.5×10^6 cells/mL, and the final concentration of the total organic solvent was 0.96%, of which the final concentration of DMSO was 0.1%. […] All samples were mixed and analyzed by LC-MS/MS method. […]

[5] = Hepatocyte metabolic stability experiment (HMS), C; format: in vitro ADME; conditions: cynomolgus monkey, C hepatocytes, read-out: HMS CLint(liver)
Description: as §2

[6] = IV, 0.49 mg/kg (002), 0.5 mg/kg (003B)
[7] = IV, 1.0 mg/kg (002), 1.2 mg/kg (003B)
[8] = PO, 2.9 mg/kg (002), 2.85 mg/kg (003B)

Sequence of BTK kinase (Q06187 whole entry): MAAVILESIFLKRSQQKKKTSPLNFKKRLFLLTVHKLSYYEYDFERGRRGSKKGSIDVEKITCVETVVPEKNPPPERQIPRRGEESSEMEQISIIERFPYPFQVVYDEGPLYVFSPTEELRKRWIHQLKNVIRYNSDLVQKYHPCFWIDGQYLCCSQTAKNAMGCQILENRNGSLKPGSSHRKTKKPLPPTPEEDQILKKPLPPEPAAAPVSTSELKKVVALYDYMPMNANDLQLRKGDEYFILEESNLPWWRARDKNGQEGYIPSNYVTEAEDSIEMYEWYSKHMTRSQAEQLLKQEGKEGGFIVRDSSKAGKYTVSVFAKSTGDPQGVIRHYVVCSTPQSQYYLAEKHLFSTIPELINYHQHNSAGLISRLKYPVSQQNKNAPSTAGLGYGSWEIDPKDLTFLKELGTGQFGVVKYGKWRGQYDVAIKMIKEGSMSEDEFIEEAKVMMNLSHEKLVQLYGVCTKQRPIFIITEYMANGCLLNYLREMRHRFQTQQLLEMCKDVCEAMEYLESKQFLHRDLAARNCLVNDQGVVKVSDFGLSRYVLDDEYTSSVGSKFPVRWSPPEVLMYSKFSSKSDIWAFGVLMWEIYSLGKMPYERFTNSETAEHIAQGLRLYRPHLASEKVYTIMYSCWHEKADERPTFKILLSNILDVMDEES

Nc1nccc2c1n(-c1ccc(Oc3ccccc3)cc1)c(=O)n2[C@@H]1CCCN(C(=O)/C=C/CF)C1 [Compound 002]
IC50 [1]: 1.65 nM | AUC(0-inf) [2, 6]: 0.684 µM·h | C0 [2, 6]: 1710 nM | Vd [2, 6]: 1.5 L/kg | clearance [2, 6]: 25.6 mL/min/kg | half-life [2, 6]: 58.2 min | AUC(0-inf) ([2]; PO, 2.0 mg/kg): 2.25 µM·h | Cmax ([2]; PO, 2.0 mg/kg): 1140 nM | Tmax ([2]; PO, 2.0 mg/kg): 30 min | bioavailability ([2]; PO, 2.0 mg/kg): 82.2% | half-life ([2]; PO, 2.0 mg/kg): 42.6 min | AUC(0-inf) [3, 7]: 0.697 µM·h | C0 [3, 7]: 4190 nM | Vd [3, 7]: 0.76 L/kg | clearance [3, 7]: 49 mL/min/kg | half-life [3, 7]: 16.8 min | AUC(0-inf) [3, 8]: 0.83 µM·h | Cmax [3, 8]: 1190 nM | Tmax [3, 8]: 4.98 min | bioavailability [3, 8]: 39.7% | half-life [3, 8]: 21 min | CLint scaled at 1 μM [4]: 130 mL/min/kg | CLint scaled at 1 μM [5]: 203 mL/min/kg

Source: patent US20240217973A1, “IMIDAZOPYRIDINE COMPOUNDS AND USE THEREOF” (MEDSHINE DISCOVERY INC., priority 2021, published 2024)
